IC50 data for ten compounds are collected here from US12590099B2, “Inhibitors of histone deacetylase useful for the treatment or prevention of HIV infection” (Merck Sharp & Dohme LLC, priority 2018, dated 2026).

Format in all cases: biochemical
The target of one test is T1, Recombinant human HDAC1 (Homo sapiens, UniProt Q13547).
T1 construct: FLAG (C); made in house
The test can be described thus: Human HDAC enzyme inhibitor Fluor-de-Lys assay, HDAC1. The method, boiled down:
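Fluor-de-Lys format at room temperature (23° C.): compounds titrated 10-point, 1:3, preincubated with HDAC before substrate addition; HDAC1 run at 0.3 nM enzyme with 20 μM BML-KI104. Developer with excess HDAC inhibitor ends the reaction, and trypsin-liberated AMC fluorescence is the read-out.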

Another test addresses T2, Recombinant human HDAC2 (Homo sapiens, UniProt Q92769).
T2 construct: Full length human HDAC2-FLAG was expressed in baculovirus infected Sf9 cells; FLAG (C); made in house; host or cells: Sf9 (baculovirus)
The test can be described thus: Human HDAC enzyme inhibitor Fluor-de-Lys assay, HDAC2. The method, boiled down:
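Fluor-de-Lys format at room temperature (23° C.): compounds titrated 10-point, 1:3, preincubated with HDAC before substrate addition. Developer with excess HDAC inhibitor ends the reaction, and trypsin-liberated AMC fluorescence is the read-out.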

The target of a further test is T3, HDAC6 (Homo sapiens, UniProt Q9UBN7).
T3 sequence (Q9UBN7 1-1215): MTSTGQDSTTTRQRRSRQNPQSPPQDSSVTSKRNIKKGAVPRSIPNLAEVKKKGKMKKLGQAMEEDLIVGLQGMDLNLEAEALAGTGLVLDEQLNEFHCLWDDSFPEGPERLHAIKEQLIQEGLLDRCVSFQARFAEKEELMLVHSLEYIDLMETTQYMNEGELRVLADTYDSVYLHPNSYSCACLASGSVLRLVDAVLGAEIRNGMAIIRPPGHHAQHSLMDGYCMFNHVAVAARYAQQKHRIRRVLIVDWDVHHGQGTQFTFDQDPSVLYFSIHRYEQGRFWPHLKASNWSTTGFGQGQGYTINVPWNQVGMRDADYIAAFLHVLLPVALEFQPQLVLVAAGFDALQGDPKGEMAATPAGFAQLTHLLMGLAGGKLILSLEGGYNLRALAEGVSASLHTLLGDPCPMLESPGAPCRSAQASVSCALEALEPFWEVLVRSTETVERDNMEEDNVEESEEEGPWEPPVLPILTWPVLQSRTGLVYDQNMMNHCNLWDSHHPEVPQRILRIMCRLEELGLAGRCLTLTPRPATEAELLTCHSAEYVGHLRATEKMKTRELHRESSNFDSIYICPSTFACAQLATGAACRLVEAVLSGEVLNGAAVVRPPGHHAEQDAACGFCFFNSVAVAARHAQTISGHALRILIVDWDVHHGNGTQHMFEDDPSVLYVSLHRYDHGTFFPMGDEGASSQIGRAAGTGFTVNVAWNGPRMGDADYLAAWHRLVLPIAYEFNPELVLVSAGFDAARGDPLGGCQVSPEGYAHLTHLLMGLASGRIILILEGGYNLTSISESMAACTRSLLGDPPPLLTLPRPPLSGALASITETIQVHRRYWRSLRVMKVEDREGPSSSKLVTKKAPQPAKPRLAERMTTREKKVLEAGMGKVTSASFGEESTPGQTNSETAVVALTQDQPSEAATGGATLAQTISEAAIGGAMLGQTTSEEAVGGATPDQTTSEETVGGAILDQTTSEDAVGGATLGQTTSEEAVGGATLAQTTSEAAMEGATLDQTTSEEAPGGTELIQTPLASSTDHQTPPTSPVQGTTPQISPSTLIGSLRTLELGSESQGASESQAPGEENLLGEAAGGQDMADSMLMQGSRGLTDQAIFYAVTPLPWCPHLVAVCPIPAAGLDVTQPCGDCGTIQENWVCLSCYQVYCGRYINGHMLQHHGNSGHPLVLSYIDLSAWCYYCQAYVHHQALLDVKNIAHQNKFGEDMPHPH
Put plainly: Human HDAC enzyme inhibitor Fluor-de-Lys assay, HDAC6.

In a further test the target is T4, Recombinant human HDAC8 (Homo sapiens, UniProt Q9BY41).
T4 construct: purchased Enzo Life Sciences BML-SE145-0100
T4 sequence (Q9BY41 1-377): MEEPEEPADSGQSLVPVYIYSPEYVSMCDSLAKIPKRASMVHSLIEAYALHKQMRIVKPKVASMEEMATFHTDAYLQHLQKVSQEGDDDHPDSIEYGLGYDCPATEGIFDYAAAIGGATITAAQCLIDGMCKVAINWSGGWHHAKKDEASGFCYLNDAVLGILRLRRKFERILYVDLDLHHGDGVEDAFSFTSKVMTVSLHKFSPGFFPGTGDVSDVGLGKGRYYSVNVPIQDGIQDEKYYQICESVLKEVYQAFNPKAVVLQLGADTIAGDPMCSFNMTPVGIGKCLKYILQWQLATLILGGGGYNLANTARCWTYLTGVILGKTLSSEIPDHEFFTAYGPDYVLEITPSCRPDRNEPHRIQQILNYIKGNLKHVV
Put plainly: Human HDAC enzyme inhibitor Fluor-de-Lys assay, HDAC8.

Setting [1] is: recombinant human HDAC1, Fluor-de-Lys assay.
Setting [2] is: recombinant human HDAC2, Fluor-de-Lys assay.
Where [3] appears, read: recombinant human HDAC8, Fluor-de-Lys assay.

Read-outs that look alike come from different tables or passages of the source. A value given as a limit tells only on which side of the number the result lay.

The term IC50 denotes the concentration that gives 50% inhibition.

T1 sequence (Q13547 whole entry): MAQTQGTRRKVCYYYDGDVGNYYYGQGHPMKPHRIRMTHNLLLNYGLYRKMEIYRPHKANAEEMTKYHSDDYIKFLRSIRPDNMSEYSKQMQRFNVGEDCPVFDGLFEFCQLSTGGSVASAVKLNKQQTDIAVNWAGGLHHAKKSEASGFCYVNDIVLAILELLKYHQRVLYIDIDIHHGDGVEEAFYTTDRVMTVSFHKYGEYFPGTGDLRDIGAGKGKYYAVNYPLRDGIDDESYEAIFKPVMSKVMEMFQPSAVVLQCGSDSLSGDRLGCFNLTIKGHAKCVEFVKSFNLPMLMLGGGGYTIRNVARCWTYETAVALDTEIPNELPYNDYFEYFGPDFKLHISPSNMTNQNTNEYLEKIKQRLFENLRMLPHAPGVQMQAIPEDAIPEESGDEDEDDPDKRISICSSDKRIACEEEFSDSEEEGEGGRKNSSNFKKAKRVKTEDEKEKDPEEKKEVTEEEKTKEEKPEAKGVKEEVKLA
T2 sequence (Q92769 whole entry): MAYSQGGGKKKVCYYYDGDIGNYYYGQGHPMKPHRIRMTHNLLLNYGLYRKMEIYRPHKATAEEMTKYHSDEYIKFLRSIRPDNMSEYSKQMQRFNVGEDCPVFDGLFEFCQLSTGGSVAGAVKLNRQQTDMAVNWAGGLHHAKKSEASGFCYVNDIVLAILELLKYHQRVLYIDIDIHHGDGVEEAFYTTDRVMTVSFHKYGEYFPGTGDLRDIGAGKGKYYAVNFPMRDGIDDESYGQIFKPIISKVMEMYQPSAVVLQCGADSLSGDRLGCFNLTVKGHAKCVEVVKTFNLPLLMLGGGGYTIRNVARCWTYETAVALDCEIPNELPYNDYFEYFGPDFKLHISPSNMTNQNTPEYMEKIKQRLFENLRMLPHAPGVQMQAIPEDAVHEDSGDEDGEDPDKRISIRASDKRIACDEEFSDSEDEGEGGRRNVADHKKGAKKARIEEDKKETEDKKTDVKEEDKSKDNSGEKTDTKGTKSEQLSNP

In the case of `CCC(=O)CCCCC[C@H](NC(=O)C1=NOC2(CCN(CC)CC2)C1)c1ncc(-c2cc3ccc(C)nc3cc2F)[nH]1` [Compound 233], the IC50 on Recombinant human HDAC1 (setting [1]) is 0.00359 µM; on Recombinant human HDAC2 (setting [2]) it was 0.0252 µM; against HDAC6 (HDAC6, Fluor-de-Lys assay), over 0.9 µM; on Recombinant human HDAC8 (setting [3]), over 0.9 µM.

As to `CCCC(=O)CCCCC[C@H](NC(=O)[C@H]1CC12CCN(C)CC2)c1ncc(-c2ccc(F)cc2)[nH]1` [Compound 239], the IC50 at Recombinant human HDAC1 (setting [1]) is 0.0139 µM; on Recombinant human HDAC2 (setting [2]), 0.0774 µM; against HDAC6 (HDAC6, Fluor-de-Lys assay), over 45 µM; on Recombinant human HDAC8 (setting [3]), 20.6 µM.

For the compound `CCC(=O)CCCCC[C@H](NC(=O)[C@H]1CC12CCN(C)CC2)c1ncc(-c2ccc(C(=O)NC3CCOC3)cc2)[nH]1` (stereo partly shown) [Compound 258], the half-maximal inhibitory concentration (IC50) was determined as 0.00782 µM on Recombinant human HDAC1 (setting [1]); 0.0238 µM on Recombinant human HDAC2 (setting [2]); 38.7 µM at HDAC6 (HDAC6, Fluor-de-Lys assay); 16.4 µM on Recombinant human HDAC8 (setting [3]).

With `CCC(=O)CCCCC[C@H](NC(=O)[C@H]1CC12CCN(C(C)C)CC2)c1ncc(-c2ccc3nc(C4CC4)ccc3c2)[nH]1` [Compound 100], the half-inhibitory concentration (IC50) was under 0.0015 µM at Recombinant human HDAC1, under 0.0015 µM on Recombinant human HDAC2, 11.9 µM against HDAC6 and 8.25 µM on Recombinant human HDAC8.

Take `CCC(=O)CCCCC[C@H](NC(=O)C1=NOC2(CCN(CC)CC2)C1)c1ncc(-c2cc3ccc(C)nc3cc2F)o1` [Compound 269]: the IC50 on Recombinant human HDAC1 (setting [1]) is 0.00518 µM; on Recombinant human HDAC2 (setting [2]) it was 0.0367 µM; at HDAC6 (HDAC6, Fluor-de-Lys assay) it was over 0.9 µM; on Recombinant human HDAC8 (setting [3]), over 0.9 µM.

Take `CCC(=O)CCCCC[C@H](NC(=O)[C@H]1CC12CCN(C)CC2)c1ncc(-c2ccc3nc(C)ccc3c2)o1` [Compound 80]: the IC50 at Recombinant human HDAC1 is 0.00289 µM; at Recombinant human HDAC2 it was 0.0148 µM; at HDAC6 it was 1.68 µM; on Recombinant human HDAC8, over 45 µM.

As for `CCC(=O)CCCCC[C@H](NC(=O)C1CC12CCN(CC)CC2)c1nc(-c2ccc(F)cc2)[nH]c1-c1cn[nH]c1` (stereo partly shown) [Compound 249], the IC50 at Recombinant human HDAC1 (setting [1]) is 0.0174 µM; at Recombinant human HDAC2 (setting [2]) it was 0.0883 µM; against HDAC6 (HDAC6, Fluor-de-Lys assay), 19.3 µM; on Recombinant human HDAC8 (setting [3]) it was 31.5 µM.

For the compound `CCC(=O)CCCCC[C@H](NC(=O)C1=NOC2(CCN(C)CC2)C1)c1ncc(-c2ccc(-c3cccnc3)cc2OC)o1` [Compound 222, N-{(1S)-1-[5-(2-methoxy-4-pyridin-3-ylphenyl)-1,3-oxazol-2-yl]-7-oxononyl}-8-methyl-1-oxa-2,8-diazaspiro[4.5]dec-2-ene-3-carboxamide], the half-inhibitory concentration (IC50) at Recombinant human HDAC1 (setting [1]) was 0.00161 µM; on Recombinant human HDAC2 (setting [2]), 0.0245 µM; against HDAC6 (HDAC6, Fluor-de-Lys assay), over 0.9 µM; at Recombinant human HDAC8 (setting [3]), over 0.9 µM.

As for `CCCn1cc(-c2[nH]c(-c3ccc(F)cc3)nc2C(CCCCCC(=O)CC)NC(=O)C2CC23CCN(CC)CC3)cn1` (stereo not shown) [Compound 254], the IC50 at Recombinant human HDAC1 (setting [1]) is 0.0294 µM; at Recombinant human HDAC2 (setting [2]), 0.131 µM; on HDAC6 (HDAC6, Fluor-de-Lys assay) it was over 45 µM; on Recombinant human HDAC8 (setting [3]) it was 38.7 µM.

`CCC(=O)CCCCC[C@H](NC(=O)[C@H]1CC12CCN(C)CC2)c1ncc(-c2cnc3cccnc3c2)[nH]1` [Compound 259]: the IC50 on Recombinant human HDAC1 (setting [1]) came to 0.0238 µM; at Recombinant human HDAC2 (setting [2]), 0.095 µM; on HDAC6 (HDAC6, Fluor-de-Lys assay), 3.14 µM; at Recombinant human HDAC8 (setting [3]), 6.14 µM.
